Test results as given in publication PMC10673995, “Discovery of a novel cardiac-specific myosin modulator using artificial intelligence-based virtual screening” (Nature Communications, 2023).
Several values for one entry are separate records, joined by “and”; a condition that tells them apart may be missing. Identical values can stand only once. Like-named read-outs stand apart in the source and are kept apart here.

Assays:
[1] = molecular target: T1, bovine β-cardiac myosin S1 (Bos taurus, UniProt Q9BE39); assay: Cardiac acto-myosin S1 ATPase (NADH-coupled); assay type: biochemical; set-up: myosin S1 ATPase activity vs F-actin concentration: unit not given here; settings: for myosin S1 ATPase activity vs F-actin concentration: 100 μmol/L F10, Experiment # 1-9
T1 construct: IC50 for the ATPase activity of the isolated myosin motor domain; from tissue; host or cells: bovine ventricle
T1 sequence (Q9BE39 85-778 limits assumed): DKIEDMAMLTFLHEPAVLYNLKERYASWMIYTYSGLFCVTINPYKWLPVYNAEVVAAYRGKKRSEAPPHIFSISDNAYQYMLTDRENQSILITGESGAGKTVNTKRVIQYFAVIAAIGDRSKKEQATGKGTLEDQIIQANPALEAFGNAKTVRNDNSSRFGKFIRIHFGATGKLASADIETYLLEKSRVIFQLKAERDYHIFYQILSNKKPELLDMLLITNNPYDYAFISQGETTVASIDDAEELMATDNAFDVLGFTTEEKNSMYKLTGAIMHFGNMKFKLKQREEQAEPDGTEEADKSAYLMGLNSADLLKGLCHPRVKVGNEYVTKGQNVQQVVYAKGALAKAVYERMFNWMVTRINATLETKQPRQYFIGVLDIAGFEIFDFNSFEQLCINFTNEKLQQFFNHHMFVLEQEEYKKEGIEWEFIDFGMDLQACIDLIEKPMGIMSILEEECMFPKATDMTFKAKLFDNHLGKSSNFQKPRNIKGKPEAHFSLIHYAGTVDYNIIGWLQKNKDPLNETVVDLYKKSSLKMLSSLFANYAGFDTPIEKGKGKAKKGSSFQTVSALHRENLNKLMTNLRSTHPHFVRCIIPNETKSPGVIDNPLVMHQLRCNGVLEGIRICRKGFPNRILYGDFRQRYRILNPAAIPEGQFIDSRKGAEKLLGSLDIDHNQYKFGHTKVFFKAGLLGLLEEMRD
T1 sequence (P85100 whole entry partner, the tested form may be a part): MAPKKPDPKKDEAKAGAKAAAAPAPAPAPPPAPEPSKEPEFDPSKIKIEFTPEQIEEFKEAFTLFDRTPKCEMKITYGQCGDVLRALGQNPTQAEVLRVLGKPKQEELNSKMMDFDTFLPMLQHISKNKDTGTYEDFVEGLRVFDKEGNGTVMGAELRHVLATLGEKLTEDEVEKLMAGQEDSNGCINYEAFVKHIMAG
Method: Bovine cardiac myosin S1 was prepared from bovine ventricle as previously described. Rabbit skeletal F-actin was purchased from Cytoskeleton Inc. and prepared for experiments according to manufacturer’s instructions.
20 μL of enzyme mix in buffer A (composition in mmol L^−1: 10 MOPS, 0.1 EGTA, 1 DTT, pH 7) containing 500 nmol L^−1 bovine cardiac myosin S1, 40 U mL^−1 lactate dehydrogenase and 400 U mL^−1 pyruvate kinase were dispensed into a black 96-well half area plate (Greiner). […] Each assay plate contained five wells with DMSO only (negative control) and five wells with 10 μmol L^−1 Blebbistatin (positive control). Plates were incubated on a plate shaker at 30 °C for 10 min at 2000 rpm. […] 96-channel pipette. Plates were briefly mixed by shaking at 5000 rpm on a plate shaker and spun down at 3000 g for 10 s. NADH fluorescence intensity was measured for each well using a ClarioStar Plate Reader for 10 min every 30 sec at 30 °C with the following settings: excitation at 380 nm with a 10 nm bandwidth and emission at 470 nm with a 24 nm bandwidth. Data were recorded with BMG Labtech Reader Control Software v6.20.

[2] = test system: fast skeletal muscle (Tiberialis Anterior) myofibrils; assay: Myofibrillar ATPase, fast skeletal myofibrils; assay type: biochemical, marmoset (Callithrix jacchus)
Description: Next we tested the myosin isoform specificity of F10 by measuring its effect on the ATPase activity of myofibrils isolated from ventricle, and fast (Tiberialis Anterior) and slow skeletal muscles (Soleus) isolated from marmoset (Callithrix jacchus).
Demembranated myofibrils were freshly prepared from bovine ventricle on the day of the experiments as previously described[25],[63]. Marmoset ventricular and skeletal muscle tissue was kindly provided by the Biological Service Unit of King’s College London. Steady-state myofibrillar ATPase activity was measured using an identical protocol as described above but in myofibril assay buffer (composition in mmol L^−1: 20 MOPS pH 7, 50 KCl, 0.1 CaCl2, 1 DTT) with a final bovine CMF concentration of 1 mg mL^−1.

[3] = test system: demembranated rat ventricular trabeculae; assay: Mechanics of demembranated ventricular trabeculae (force, pCa50, ktr); set-up: Isometric force, individual trabeculae / force re-development, Representative Traces: unit not given here; settings: for Normalized force, Force-pCa Titration / force re-development, Representative Traces: 20 μM F10; for Normalized Force (Tension): pCa 5.9
Method: Wistar rats (Rattus norvegicus, male, 200–250 g, 7 weeks old) were killed by cervical dislocation without the use of anesthetics (Schedule 1 procedure in accordance with UK Animal Scientific Procedure Act, 1986) and demembranated right ventricular trabeculae were prepared as described previously.
BSR-cRLCs were exchanged into demembranated trabeculae by extraction in CDTA-rigor solution (composition in mmol L^−1: 5 CDTA, 50 KCl, 40 Tris-HCl pH 8.4, 0.1% (v/v) Triton X-100) for 30 min followed by reconstitution with 40 μmol L^−1 BSR-cRLC in relaxing solution (composition in mmol L^−1: 25 Imidazole, 15 Na2Creatine phosphate (Na2CrP), 78.4 KPropionate (KPr), 5.65 Na2ATP, 6.8 MgCl2, 10 K2EGTA, 1 DTT, pH 7.1) for 1 h, replacing ~50% of the endogenous cRLC[40],[64].
The sarcomere length of trabeculae was adjusted to 2.1 μm by laser diffraction in relaxing solution prior to each activation. […] Each activation was preceded by a 2-min incubation in pre-activating solution (composition in mmol L^−1: 25 Imidazole, 15 Na2CrP, 108.2 KPr, 5.65 Na2ATP, 6.3 MgCl2, 0.2 K2EGTA, 1 DTT, pH 7.1). Solutions with varying concentrations of free [Ca^2+] were prepared by mixing relaxing and activating solutions using MAXCHELATOR software (maxchelator.stanford.edu). Isometric force and steady-state fluorescence polarization values were measured once steady force had been established. The dependence of force and order parameters on free calcium concentration was fitted to data from individual trabeculae using non-linear least-squares regression to the modified Hill Eq. (1):1 F=Y0+A⋅([Ca^2+]^nH)/(−log10[pCa50]^nH+[Ca^2+]^nH) where pCa50 is the negative logarithm of [Ca^2+] corresponding to half-maximal change in F, nH is the Hill coefficient, Y0 is the baseline, and A is the amplitude (for normalized force data: Y0 = 0 and A = 1).

[4] = test system: neuropeptide receptor NPYLR7; set-up: method as in PubChem; settings: ref PubChem; cited from earlier work

## CCc1cc2c(=O)n(NC(=S)NC(C)C)cnc2s1 [F10]
[1]
  EC50: ~20 µM
  LE (ligand efficiency): 0.34
[1]; 10 μmol L^−1, mean ± s.e.m., n = 4
  reduction of F-actin stimulated ATPase activity: 44 ± 2%
[1]; F-Actin 0 μmol L^−1
  myosin S1 ATPase activity vs F-actin concentration: 0
[1]; F-Actin 6.25 μmol L^−1
  myosin S1 ATPase activity vs F-actin concentration: 0.1565 and 0.1528 and 0.08965 and 0.1313 and 0.1366 and 0.1027 and 0.1063
[1]; F-Actin 80 μmol L^−1
  myosin S1 ATPase activity vs F-actin concentration: 0.417 and 0.4489 and 0.3031
[1]; F10 0.012207 mmol L-1 (so in the source), Experiment # 1-6, read-out: acto-myosin S1 ATPase activity, dose-response
  remaining activity at 12.207 µM: 92.9%
[1]; F10 0.024414 mmol L-1 (so in the source), Experiment # 1-6, read-out: acto-myosin S1 ATPase activity, dose-response
  remaining activity at 24.414 µM: 101%
[1]; F10 0.048828 mmol L-1 (so in the source), Experiment # 1-6, read-out: acto-myosin S1 ATPase activity, dose-response
  remaining activity at 48.828 µM: 99.4%
[1]; F10 0.097656 mmol L-1 (so in the source), Experiment # 1-6, read-out: acto-myosin S1 ATPase activity, dose-response
  remaining activity at 97.656 µM: 92.7%
[1]; F10 0.195313 mmol L-1 (so in the source), Experiment # 1-6, read-out: acto-myosin S1 ATPase activity, dose-response
  remaining activity at […]: 94.4%
[1]; F10 0.390625 mmol L-1 (so in the source), Experiment # 1-6, read-out: acto-myosin S1 ATPase activity, dose-response
  remaining activity at 390.625 µM: 98.9%
[1]; F10 0.78125 mmol L-1 (so in the source), Experiment # 1-6, read-out: acto-myosin S1 ATPase activity, dose-response
  remaining activity at 781.25 µM: 100%
[1]; F10 3.125 mmol L-1 (so in the source), Experiment # 1-6, read-out: acto-myosin S1 ATPase activity, dose-response
  remaining activity at […]: 86.8%
[1]; F10 6.25 mmol L-1 (so in the source), Experiment # 1-6, read-out: acto-myosin S1 ATPase activity, dose-response
  remaining activity at […]: 79.3%
[1]; F10 12.5 mmol L-1 (so in the source), Experiment # 1-6, read-out: acto-myosin S1 ATPase activity, dose-response
  remaining activity at […]: 69.6%
[1]; IC50 acto-myosin S1 ATPase activity, means ± s.e.m., n = 6
  IC50: 21.3 ± 3.4 µM
[1]; dose-response, means ± s.e.m., n = 6
  maximal decrease of actomyosin ATPase activity: 89 ± 5%
[1]; in the presence of 100 μmol/L F10, control about 1.3
  maximal rate of ATP hydrolysis (kcat): about 0.5 s^−1 head^−1
[1]; in the presence of F10 (same in its absence)
  apparent dissociation equilibrium constant for F-actin binding (Kapp): about 20 μmol L^−1
[1]; means ± s.e.m., n = 6, read-out: IC50 acto-myosin S1 ATPase activity
  IC50: 21 ± 3 µM
[1]; single dose 10 μmol L^−1 compound, 10 μmol L^−1 F-actin, Repeat #1-#4, listed as 70
  acto-myosin S1 ATPase activity, normalized to DMSO control: 59 and 55 and 52 and 58
[2]; 20 μmol L^−1 F10
  effect on ATPase of myofibrils isolated from fast skeletal muscle: no effect
[2]; Tiberialis Anterior, 20 μmol L^-1 F10
  Myofibrilar ATPase, individual experiments: 103.058% and 94.7749% and 105.182% and 96.587% and 92.4359% and 90.2726% and 101.147% and 99.8027% and 75.8898% and 104.538% and 92.5792% and 95.4782% and 84.5124% and 86.7812% and 82.9998% and 107.831% and 122.01% and 86.3954% and 97.5199% and 112.738% and 111.197% and 105.032% and 96.8457%
[2]; Tiberials Anterior (fast), 20 μmol L^-1 F10
  Myofibrilar ATPase [%], change vs control: -3%
[3]; pCa 4.5
  Normalized force, Force-pCa Titration: 1.00
[3]; pCa 5.5
  Normalized force, Force-pCa Titration: 0.88 and 0.85 and 0.81
[3]; pCa 5.6
  Normalized force, Force-pCa Titration: 0.73 and 0.76 and 0.72
[3]; pCa 5.7
  Normalized force, Force-pCa Titration: 0.48 and 0.55 and 0.53
[3]; pCa 5.8
  Normalized force, Force-pCa Titration: 0.13 and 0.14 and 0.18
[3]; t 0.0001 s
  force re-development, Representative Traces: 0.9946
[3]; t 0.0002 s
  force re-development, Representative Traces: 0.9927
[3]; t 0.0003 s
  force re-development, Representative Traces: 0.9927
[3]; t 0.0004 s
  force re-development, Representative Traces: 0.9927
[3]; Rattus norvegicus, pCa 5.9, about 50% maximal activation, read-out: IC50 active isometric force
  IC50: 9 µM
[3]; in the presence of F10 (20 μM), control 5.88 ± 0.02
  pCa50 of force development: 5.69 ± 0.01 and 5.68 and 5.693 and 5.684
[3]; individual replicates
  Tmin: 2.9 and 4.1 and 1.3 and 4.3 and 4.9
  ktr: 35.4 and 37.1 and 32.7
  nH: 5.8 and 6.0 and 4.9
  pCa50: 5.68 (2×) and 5.69
[3]; pCa 4.5, 20 μmol L^−1 F10
  Isometric force, individual trabeculae: 16.0321 and 19.6135 and 8.993 and 17.2526 and 16.2235
  decrease of maximal active isometric tension: more than 75%
[3]; F10 5 micromolar
  Normalized Force (Tension): 80.6034 % control
[3]; F10 10 micromolar
  Normalized Force (Tension): 50.8621 % control
[3]; F10 20 micromolar
  Normalized Force (Tension): 27.5862 % control
[3]; F10 40 micromolar
  Normalized Force (Tension): 17.2414 % control
[3]; pCa 9, 20 μmol L^−1 F10
  Isometric force, individual trabeculae: 2.857 and 4.07 and 1.256 and 4.268 and 4.903
  effect on passive tension: no effect
[3]; pCa 9, 20 μmol L^−1 F10, control 3.4 ± 0.5
  Tmin (passive tension): 3.5 ± 0.6 mN mm-2
[3]; slack-re-stretch protocol, F10, in s-1 (unit assumed)
  rate of force re-development ktr, individual trabeculae (Bar Graph): 35.4 and 37.11 and 32.67
[3]; slack-re-stretch protocol, in the presence of F10, control 12.0 ± 1.9
  rate of force re-development ktr: 35.1 ± 1.3 s⁻¹ and 35 ± 1 s⁻¹
[4]
  biological activity in primary screen: without, however, any biological activity
